Laboratory results reported in patent publication US8148391B2 (Cephalon, Inc., priority 2006, dated 2012).
Where two headings read alike, the source gives them in different places. Each block holds one compound with its values, some of them ahead of it.

What was measured:
[1] = target: T1, baculovirus-expressed ALK (Homo sapiens, UniProt Q9UM73); assay: ALK Kinase Assay (ELISA-type, time-resolved fluorescence); format: biochemical
T1 construct: host or cells: baculovirus expression system
How it was run: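 Substrate coating: phospholipase C-γ, 10 μg/mL in TBS. Kinase step: 30 ng/ml ALK, 15 min, 37° C. Detection and analysis: Eu-N1 PT66 antibody, with IC50 fitted as a sigmoidal variable-slope dose-response curve.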

[2] = target: T2, c-Met (cytoplasmic domain) (Homo sapiens, UniProt P08581); assay: c-Met Kinase Assay (same methods as for ALK, with modifications); format: biochemical
T2 construct: 10 ng/mL c-Met (cytoplasmic domain, Invitrogen Corporation #PV3143); purchased Invitrogen Corporation PV3143
T2 sequence (P08581 956-1390 limits assumed): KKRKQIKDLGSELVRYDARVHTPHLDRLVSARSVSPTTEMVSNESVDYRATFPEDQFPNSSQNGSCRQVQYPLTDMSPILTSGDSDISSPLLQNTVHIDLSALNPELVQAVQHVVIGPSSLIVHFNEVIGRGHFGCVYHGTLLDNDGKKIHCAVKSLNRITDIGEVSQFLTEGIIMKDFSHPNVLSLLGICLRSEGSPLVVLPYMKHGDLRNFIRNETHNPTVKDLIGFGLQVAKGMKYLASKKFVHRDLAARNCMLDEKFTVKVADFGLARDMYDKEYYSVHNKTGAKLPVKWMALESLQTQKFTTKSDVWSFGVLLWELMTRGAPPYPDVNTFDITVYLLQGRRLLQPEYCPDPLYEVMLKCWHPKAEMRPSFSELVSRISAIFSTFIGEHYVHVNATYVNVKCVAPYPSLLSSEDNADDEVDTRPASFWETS
How it was run: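 This plate-based kinase format uses immobilized phospholipase C-γ as substrate, phosphorylated by c-Met cytoplasmic domain (10 ng/mL) at 37° C for 15 minutes.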

[3] = 1 μM ATP (Km level), read-out: ALK Activity (ALK Kinase Inhibition, IC50)
[4] = 1 μM ATP (Km level), read-out: cMet Activity (c-Met Kinase Inhibition, IC50)
[5] = ALK kinase inhibition, 1 μM ATP (Km level), read-out: ALK Activity
[6] = c-Met kinase inhibition, 1 μM ATP (Km level), read-out: cMet Activity
[7] = 1 μM ATP (Km level), 30 ng/ml ALK, 37° C., 15 minutes, read-out: ALK Activity (ALK kinase inhibition, IC50 class)
[8] = 1 μM ATP (Km level), 10 ng/mL c-Met, read-out: cMet Activity (c-Met kinase inhibition, IC50 class)
[9] = ALK kinase inhibition, 1 μM ATP, read-out: ALK Activity
[10] = c-Met kinase inhibition, 1 μM ATP, read-out: cMet Activity

T1 sequence (Q9UM73 19-1620): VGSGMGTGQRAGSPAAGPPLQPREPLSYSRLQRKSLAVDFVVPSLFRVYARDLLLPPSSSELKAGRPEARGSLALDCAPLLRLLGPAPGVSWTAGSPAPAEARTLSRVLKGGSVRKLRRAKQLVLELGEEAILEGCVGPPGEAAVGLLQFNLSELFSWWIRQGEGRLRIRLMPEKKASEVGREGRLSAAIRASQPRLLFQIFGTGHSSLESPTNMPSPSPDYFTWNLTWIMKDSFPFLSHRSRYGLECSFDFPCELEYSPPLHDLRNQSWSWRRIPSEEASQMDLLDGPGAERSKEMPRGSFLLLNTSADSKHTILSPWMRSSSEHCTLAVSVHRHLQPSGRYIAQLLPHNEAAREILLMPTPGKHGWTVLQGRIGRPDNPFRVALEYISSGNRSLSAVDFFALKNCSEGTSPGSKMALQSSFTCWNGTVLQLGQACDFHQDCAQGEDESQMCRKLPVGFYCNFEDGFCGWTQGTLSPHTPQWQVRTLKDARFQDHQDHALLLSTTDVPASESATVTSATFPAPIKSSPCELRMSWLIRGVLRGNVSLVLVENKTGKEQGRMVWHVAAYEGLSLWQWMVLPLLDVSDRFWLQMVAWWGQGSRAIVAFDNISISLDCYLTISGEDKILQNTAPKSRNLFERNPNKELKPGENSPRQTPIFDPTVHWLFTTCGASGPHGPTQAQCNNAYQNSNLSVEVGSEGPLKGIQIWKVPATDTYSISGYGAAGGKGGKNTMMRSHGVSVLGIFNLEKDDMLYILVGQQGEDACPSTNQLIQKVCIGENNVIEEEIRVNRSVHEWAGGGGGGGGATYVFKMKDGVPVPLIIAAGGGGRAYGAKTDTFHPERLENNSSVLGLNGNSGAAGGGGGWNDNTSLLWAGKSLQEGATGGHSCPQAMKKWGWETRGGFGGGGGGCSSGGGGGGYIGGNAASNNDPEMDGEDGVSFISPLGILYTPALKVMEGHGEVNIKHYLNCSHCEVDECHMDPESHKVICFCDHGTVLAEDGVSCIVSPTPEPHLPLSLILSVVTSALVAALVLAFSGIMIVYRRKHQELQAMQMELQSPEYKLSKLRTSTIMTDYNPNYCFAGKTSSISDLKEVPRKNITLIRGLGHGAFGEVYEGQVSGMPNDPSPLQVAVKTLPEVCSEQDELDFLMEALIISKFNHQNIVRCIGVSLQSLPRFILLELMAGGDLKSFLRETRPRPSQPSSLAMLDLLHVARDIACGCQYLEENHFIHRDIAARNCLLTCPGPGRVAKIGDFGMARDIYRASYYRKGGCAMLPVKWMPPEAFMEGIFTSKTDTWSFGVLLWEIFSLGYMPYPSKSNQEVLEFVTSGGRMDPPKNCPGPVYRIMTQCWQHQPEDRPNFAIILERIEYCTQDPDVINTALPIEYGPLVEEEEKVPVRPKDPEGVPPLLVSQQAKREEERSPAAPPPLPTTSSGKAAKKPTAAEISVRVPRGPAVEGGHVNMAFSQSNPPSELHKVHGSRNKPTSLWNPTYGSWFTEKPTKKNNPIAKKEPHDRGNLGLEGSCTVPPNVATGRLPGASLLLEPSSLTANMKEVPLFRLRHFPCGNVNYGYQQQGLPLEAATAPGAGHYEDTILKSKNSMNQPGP

SMILES: CN1CCN(CCO)Cc2ccc(Nc3ncc(Cl)c(N[C@@H]4CCCC[C@H]4NS(C)(=O)=O)n3)cc21 [Example 478, N-((1R,2R)-2-{5-Chloro-2-[4-(2-hydroxy-ethyl)-1-methyl-2,3,4,5-tetrahydro-1H-benzo[e][1,4]diazepin-8-ylamino]-pyrimidin-4-ylamino}-cyclohexyl)-methanesulfonamide]
IC50 [1, 5]: < 0.1 µM | IC50 [2, 6]: 1 to 10 µM

SMILES: COc1cc2c(cc1Nc1ncc(Cl)c(N[C@H]3[C@@H](C(N)=O)[C@@H]4C=C[C@H]3C4)n1)CCN(CC1CC1)CC2 [Example 775, (1S,2S,3R,4R)-3-[5-Chloro-2-(3-cyclopropylmethyl-8-methoxy-2,3,4,5-tetrahydro-1H-benzo[d]azepin-7-ylamino)-pyrimidin-4-ylamino]-bicyclo[2.2.1]hept-5-ene-2-carboxylic acid amide]
IC50 [1, 3]: < 0.1 µM | IC50 [2, 4]: > 10 µM

SMILES: CN1CCNCc2cc(OCC(F)(F)F)c(Nc3ncc(Cl)c(N[C@@H]4CCCC[C@H]4NS(C)(=O)=O)n3)cc21 [Example 497, N-((1R,2R)-2-{5-Chloro-2-[1-methyl-7-(2,2,2-trifluoro-ethoxy)-2,3,4,5-tetrahydro-1H-benzo[e][1,4]diazepin-8-ylamino]-pyrimidin-4-ylamino}-cyclohexyl)-methanesulfonamide]
IC50 [1, 5]: 0.1 to 1 µM | IC50 [2, 6]: 1 to 10 µM

SMILES: CCN1C(=O)C(C)(C)CCc2c1ccc(Nc1ncc(Cl)c(N[C@@H]3CCCC[C@H]3NS(C)(=O)=O)n1)c2OC [Example 143, N-{(1R,2R)-2-[5-Chloro-2-(1-ethyl-6-methoxy-3,3-dimethyl-2-oxo-2,3,4,5-tetrahydro-1H-benzo[b]azepin-7-ylamino)-pyrimidin-4-ylamino]-cyclohexyl}-methanesulfonamide]
IC50 [1, 5]: < 0.1 µM | IC50 [2, 6]: > 10 µM

SMILES: CS(=O)(=O)N[C@@H]1CCCC[C@H]1Nc1nc(Nc2cc(F)cc3c2OCCNC3=O)ncc1Cl [Example 1683, N-{(1R,2R)-2-[5-Chloro-2-(7-fluoro-5-oxo-2,3,4,5-tetrahydro-benzo[f][1,4]oxazepin-9-ylamino)-pyrimidin-4-ylamino]-cyclohexyl}-methanesulfonamide]
IC50 [1, 9]: 0.1 to 1 µM | IC50 [2, 10]: > 10 µM

SMILES: CNC(=O)c1ccccc1Nc1nc(Nc2ccc3c(c2)C2CCC3CN(S(C)(=O)=O)C2)ncc1Cl (stereo not shown) [Example 278, 2-[5-Chloro-2-(10-methanesulfonyl-10-aza-tricyclo[6.3.2.0*2,7*]trideca-2,4,6-trien-4-ylamino)-pyrimidin-4-ylamino]-N-methyl-benzamide]
IC50 [1, 5]: < 0.1 µM | IC50 [2, 6]: < 0.1 µM

SMILES: COCCN1C(=O)CCCc2c1ccc(Nc1ncc(Cl)c(N[C@@H]3[C@H](C(N)=O)[C@H]4C=C[C@@H]3C4)n1)c2OC [Example 128, (2-exo,3-exo)-3-{5-Chloro-2-[6-methoxy-1-(2-methoxy-ethyl)-2-oxo-2,3,4,5-tetrahydro-1H-benzo[b]azepin-7-ylamino]-pyrimidin-4-ylamino}-bicyclo[2.2.1]hept-5-ene-2-carboxylic acid amide]
IC50 [1, 5]: < 0.1 µM | IC50 [2, 6]: > 10 µM

SMILES: COc1cc2c(cc1Nc1ncc(Cl)c(N[C@@H]3CCCC[C@H]3NS(C)(=O)=O)n1)CCN(C(=O)CN(C)C)CC2 [Example 1125, N-((1R,2R)-2-{5-Chloro-2-[3-(2-dimethylamino-acetyl)-8-methoxy-2,3,4,5-tetrahydro-1H-benzo[d]azepin-7-ylamino]-pyrimidin-4-ylamino}-cyclohexyl)-methanesulfonamide]
IC50 [1, 7]: < 0.1 µM | IC50 [2, 8]: > 10 µM

SMILES: CN1CCN(C(=O)n2ccnc2)Cc2ccc(Nc3ncc(Cl)c(N[C@@H]4CCCC[C@H]4NS(C)(=O)=O)n3)cc21 [Example 482, N-((1R,2R)-2-{5-Chloro-2-[4-(imidazole-1-carbonyl)-1-methyl-2,3,4,5-tetrahydro-1H-benzo[e][1,4]diazepin-8-ylamino]-pyrimidin-4-ylamino}-cyclohexyl)-methanesulfonamide]
IC50 [1, 5]: < 0.1 µM | IC50 [2, 6]: 0.1 to 1 µM

The remaining lines, values ahead:

IC50 [1, 3]: 1 to 10 µM | IC50 [2, 4]: > 10 µM
SMILES: COc1cc2c(cc1Nc1ncc(C(F)(F)F)c(Nc3ccccc3S(=O)(=O)C(C)C)n1)CCN(CC(=O)N(C)C)CC2 [Example 932, 2-(7-Methoxy-8-{4-[2-(propane-2-sulfonyl)-phenylamino]-5-trifluoromethyl-pyrimidin-2-ylamino}-1,2,4,5-tetrahydro-3-benzazepin-3-yl)-N,N-dimethyl-acetamide]

IC50 [1, 5]: < 0.1 µM | IC50 [2, 6]: < 0.1 µM
SMILES: CNC(=O)c1ccccc1Nc1nc(Nc2ccc3c(c2)CCN(C(=O)C(F)(F)F)CC3)ncc1Cl [Example 44, 2-{5-Chloro-2-[3-(2,2,2-trifluoro-acetyl)-2,3,4,5-tetrahydro-1H-benzo[d]azepin-7-ylamino]-pyrimidin-4-ylamino}-N-methyl-benzamide]

IC50 [1, 7]: < 0.1 µM | IC50 [2, 8]: < 0.1 µM
SMILES: COCCN1CCc2ccc(Nc3ncc(Cl)c(Nc4ccccc4OCC#N)n3)cc2CC1 [Example 1240, (2-{5-Chloro-2-[3-(2-methoxy-ethyl)-2,3,4,5-tetrahydro-1H-3-benzazepin-7-ylamino]-pyrimidin-4-ylamino}-phenoxy)-acetonitrile]

IC50 [1, 7]: < 0.1 µM | IC50 [2, 8]: > 10 µM
SMILES: CCOc1ccccc1Nc1nc(Nc2cc3c(cc2OC)CCN(CC(=O)N(C)C)CC3)ncc1Cl [Example 1144, 2-{7-[5-Chloro-4-(2-ethoxy-phenylamino)-pyrimidin-2-ylamino]-8-methoxy-1,2,4,5-tetrahydro-benzo[d]azepin-3-yl}-N,N-dimethyl-acetamide]

IC50 [1, 3]: 0.1 to 1 µM | IC50 [2, 4]: > 10 µM
SMILES: COc1cc(N2CCOCC2)ccc1Nc1nc(Nc2cccc3c2OCCCC3(C)C)ncc1Cl [Example 876, 5-Chloro-N*2*-(5,5-dimethyl-2,3,4,5-tetrahydro-benzo[b]oxepin-9-yl)-N*4*-(2-methoxy-4-morpholin-4-yl-phenyl)-pyrimidine-2,4-diamine]

IC50 [1, 9]: 0.1 to 1 µM | IC50 [2, 10]: < 0.1 µM
SMILES: C#CCNC(=O)c1cccc(F)c1Nc1nc(Nc2ccc3c(c2)N(C(C)=O)CCCO3)ncc1Cl [Example 1713, 2-[2-(9-Acetyl-6,7,8,9-tetrahydro-5-oxa-9-aza-benzocyclohepten-2-ylamino)-5-chloro-pyrimidin-4-ylamino]-3-fluoro-N-prop-2-ynyl-benzamide]

IC50 [1, 5]: < 0.1 µM | IC50 [2, 6]: 0.1 to 1 µM
SMILES: Cn1ccnc1-c1ccccc1Nc1nc(Nc2ccc3c(c2)CCC(=O)CC3)ncc1Cl [Example 217, 2-{5-Chloro-4-[2-(1-methyl-1H-imidazol-2-yl)-phenylamino]-pyrimidin-2-ylamino}-5,6,8,9-tetrahydro-benzocyclohepten-7-one]

IC50 [1, 3]: 0.1 to 1 µM | IC50 [2, 4]: 1 to 10 µM
SMILES: COc1cc(N2CCOCC2)ccc1Nc1nc(Nc2ccc3c(c2)CCCC(=O)N3C(C)C)ncc1Cl [Example 666, 7-[5-Chloro-4-(2-methoxy-4-morpholin-4-yl-phenylamino)-pyrimidin-2-ylamino]-1-isopropyl-1,3,4,5-tetrahydro-benzo[b]azepin-2-one]

IC50 [1, 5]: 0.1 to 1 µM | IC50 [2, 6]: > 10 µM
SMILES: COCCN1CCc2ccc(Nc3ncc(Cl)c(NC(C)(C)CNS(C)(=O)=O)n3)cc2CC1 [Example 306, N-(2-{5-Chloro-2-[3-(2-methoxy-ethyl)-2,3,4,5-tetrahydro-1H-benzo[d]azepin-7-ylamino]-pyrimidin-4-ylamino}-2-methyl-propyl)-methanesulfonamide]

IC50 [1, 7]: < 0.1 µM | IC50 [2, 8]: < 0.1 µM
SMILES: CNC(=O)c1cc(F)cc(F)c1Nc1nc(Nc2ccc3c(c2)NC(=O)CCC3)ncc1Cl [Example 1278, 2-[5-Chloro-2-(2-oxo-2,3,4,5-tetrahydro-1H-1-benzazepin-8-ylamino)-pyrimidin-4-ylamino]-3,5-difluoro-N-methyl-benzamide]

IC50 [1, 9]: > 10 µM | IC50 [2, 10]: > 10 µM
SMILES: O=C1CCCc2ccc(Nc3ncc(Cl)c(Nc4ccccc4OCCN4CCOCC4)n3)cc2N1 [Example 1465, 8-{5-Chloro-4-[2-(2-morpholin-4-yl-ethoxy)-phenylamino]-pyrimidin-2-ylamino}-1,3,4,5-tetrahydro-benzo[b]azepin-2-one]

IC50 [1, 3]: 0.1 to 1 µM | IC50 [2, 4]: > 10 µM
SMILES: COc1cc2c(cc1Nc1ncc(Cl)c(Nc3ccccc3-n3cccn3)n1)CCN(CC(C)(F)F)CC2 [Example 825, 5-Chloro-N*2*-[3-(2,2-difluoro-propyl)-8-methoxy-2,3,4,5-tetrahydro-1H-benzo[d]azepin-7-yl]-N*4*-(2-pyrazol-1-yl-phenyl)-pyrimidine-2,4-diamine]

IC50 [1, 7]: < 0.1 µM | IC50 [2, 8]: < 0.1 µM
SMILES: CCN1C(=O)CCC(C)(C)c2ccc(Nc3ncc(Cl)c(Nc4ccccc4S(=O)(=O)C(C)C)n3)cc21 [Example 1243, 8-{5-Chloro-4-[2-(propane-2-sulfonyl)-phenylamino]-pyrimidin-2-ylamino}-1-ethyl-5,5-dimethyl-1,3,4,5-tetrahydro-1-benzazepin-2-one]

IC50 [1, 9]: > 10 µM | IC50 [2, 10]: 0.1 to 1 µM
SMILES: CNC(=O)c1cccc(C(F)(F)F)c1Nc1nc(Nc2ccc3c(c2)CCOC(=O)N3C)ncc1Cl [Example 1753, 2-[5-Chloro-2-(5-methyl-6-oxo-5,6,8,9-tetrahydro-7-oxa-5-aza-benzocyclohepten-2-ylamino)-pyrimidin-4-ylamino]-N-methyl-3-trifluoromethyl-benzamide]
